Measurements reported in patent US20160175302A1 (AB SCIENCE, priority 2014, published 2016).

Columns and labels:
[1] = system: Gastric cancer cell line HGC-27; experiment: Colorimetric cell proliferation and viability assay (CellTiter-Blue), HGC-27; conditions: Homo sapiens, HGC-27, 72 h, read-out: IC50, agent alone
[2] = system: Gastric cancer cell line AGS; experiment: Colorimetric cell proliferation and viability assay (CellTiter-Blue), AGS; conditions: 72 h, read-out: IC50, agent alone
[3] = clinically achievable concentrations, plasma; read-out: Cmax (reported / approximate, measured in plasma); cited from earlier work

Row | IC50 [1] | IC50 [2] | Structure (SMILES) | Cmax [3]
1 | 0.1 to 1 µM | > 1 µM | CC[C@]1(O)C[C@H]2CN(CCc3c([nH]c4ccccc34)[C@@](C(=O)OC)(c3cc4c(cc3OC)N(C=O)[C@H]3[C@@](O)(C(=O)OC)[C@H](OC(C)=O)[C@]5(CC)C=CCN6CC[C@]43[C@@H]65)C2)C1 [Vincristin] | –
2 | 20 µM | 10 µM | COc1cc([C@@H]2c3cc4c(cc3[C@@H](O[C@@H]3O[C@@H]5CO[C@@H](C)O[C@H]5[C@H](O)[C@H]3O)[C@H]3COC(=O)[C@H]23)OCO4)cc(OC)c1O [Etoposide] | ~34 µM
3 | 1000 µM | 100 µM | O=c1[nH]cc(F)c(=O)[nH]1 [5-FU, 5-fluorouracil] | 60 to 200 µM
4 | > 100 µM | 20 µM | CCc1c2c(nc3ccc(OC(=O)N4CCC(N5CCCCC5)CC4)cc13)-c1cc3c(c(=O)n1C2)COC(=O)[C@]3(O)CC [Irinotecan] | 1 to 10 µM
5 | 5 to 10 µM | 5 to 10 µM | Cc1ccc(NC(=O)c2ccc(CN3CCN(C)CC3)cc2)cc1Nc1nc(-c2cccnc2)cs1 [masitinib, 4-(4-methylpiperazin-1-ylmethyl)-N-[4-methyl-3-(4-pyridin-3ylthiazol-2-ylamino)phenyl]benzamide] | –
